One compound from patent publication US6046228A, “Anti-viral pharmaceutical compositions containing saturated 1,2-dithiaheterocyclic compounds and uses thereof” (priority 1999, dated 2000) can be followed below.

Holding throughout (assay type): cell-based
Assay [1] deals with HIV-1IIIB. Put plainly: XTT cytopathicity assay, HIV-1IIIB. The procedure: (§1) Initial anti-HIV screening was performed with CEM-SS cells and HIV-1RFusing the XTT cytoprotection assay as previously described (Weislow et al., J. National Cancer Inst. 81: 577-586, (1989)). HIV-1 isolates included common laboratory stains (RF, IIIB and MN), as well as a panel of HIV-1 clinical isolates (Cushman et al., J. Med. Chem. 37: 3040-3050, (1994)). The pyridone-resistant HIV-1A17 isolate (Nunberg et al., J. Virol., 65: 4887-4892 (1991)) was obtained from Emilio Emini at Merck Sharpe and Dohme Laboratories. Phytohemagglutinin-stimulated human peripheral blood lymphocytes (PBLs) and fresh monocyte-macrophage (Mono/MF) cultures were prepared and utilized in antiviral assays as previously described (Rice et al., Proc. Nat'l. Academy Science, USA 90: 9721-9724, (1993)); (Cushman et al., J. Med. Chem. 37: 3040-3050, (1994)). EC50 values for these cultures indicate the drug concentration that provided a 50% reduction in viral p24 production. […] The compounds can be synthesized according to the teachings of Singh et al., Sulfur Letters 8: 107-114, (1988). The 4,5-cis-dihydroxy(1,1-dioxy-1,2,-dithiohexane) compound (NSC 624151) has been abbreviated as 624151 for convenience. MT-2, MT-4, U1, HeLa-CD4-LTR-β-gal and 174xCEM cells were obtained from the AIDS Research and Reference Program (National Institute of Allergy and Infectious Disease, National Institutes of Health, Bethesda, Md. USA), as were the HIV-2MS and the AZT-resistant HIV-1G910-6 isolates.
(§2) ^a Anti-HIV studies utilizing lymphocytederived cell lines were
(§3) performed using the XTT cytopathicity assay, while antiviral assays
On the technique in general: Tetrazolium dyes change colour on reduction, which living cells bring about.

The subject of a further assay is HIV-1 Clade D. Put plainly: XTT cytopathicity assay, HIV-1 clade. Particulars: CEM-SS. The method, then:
as §1, §2, §3

The next assay has as its system HIV-1 Clade F. Kind of assay: XTT cytopathicity assay, HIV-1 clade. Particulars: CEM-SS. The procedure:
as §1, §2, §3

Another assay relates to HIV-1 Clade B. Put plainly: XTT cytopathicity assay, HIV-1 clade. As to conditions: CEM-SS. The procedure: as §1, §2, §3
The test system of a further assay is HIV-1 Clade A. Put plainly: XTT cytopathicity assay, HIV-1 clade. Particulars: CEM-SS. The procedure: as §1, §2, §3
In a further assay the test system is HIV-1 Clade C. Put plainly: XTT cytopathicity assay, HIV-1 clade. Particulars: CEM-SS. The method, then:
as §1, §2, §3

Assay [2] concerns HIV-1IIIB. Put plainly: combination antiviral XTT assay, CEM-SS cells, method of Prichard and Shipman. Particulars: for synergy volume: 95% confidence level. The method, then: Analysis of drug combinations was performed utilizing the XTT assay described above, with statistical evaluations performed according to the method of Prichard and Shipman (Antiviral Res. 14: 181-206, (1990)). Combination antiviral XTT assays were performed with CEM-SS cells utilizing HIV-1IIIB as previously described (Buckheit et al., Antimicrobial Agents and Chemotherapy 39: 2718-2727, (1995)). The standard anti-HIV assay was altered for combination analysis by increasing the multiplicity of infection 3-fold, allowing greater statistical consistency in these assays.
The synergy volumes for the combinatorial anti-HIV activities calculated at the 95% confidence level were 37, 80, 44, 55 and 16 μM^2, respectively, for each combination. Synergy volumes that range from […] represent additivity and volumes>50% represent synergistic responses. […] Thus, it is anticipated that the present dithiane dioxide compounds can be used in pharmaceutical compositions further including other antiviral agents.

The subject of the next assay is HIV-1 VIHU(NSI). Kind of assay: antiviral assay in PBL (p24), clinical isolate VIHU. As to conditions: Human immunodeficiency virus 1, cell-free p24. The procedure:
as §1, with “MT-2, MT-4, U1, HeLa-CD4-LTR-β-gal and 174xCEM cells were obtained from the AIDS Research and Reference Program (National Institute of Allergy and Infectious Disease, National Institutes of Health, Bethesda, Md. USA), as were the HIV-2MS and the AZT-resistant HIV-1G910-6 isolates.” left out

Another assay has as its system CEM-SS cells. Put plainly: XTT assay, cytotoxicity (IC50), CEM-SS cells.

Like-named read-outs stand apart in the source and are kept apart here.

In the case of `O=S1(=O)C[C@H](O)[C@H](O)CS1` (relative stereo) [NSC 624151, cis-1,1-dioxo[1,2]dithiane-4,5-diol], the concentration for a half-maximal effect (EC50) in the assay on HIV-1IIIB [1] (Human immunodeficiency virus 1, AA5(B, EBV+), HIV-1IIIB) was 2.6e-05 M; in the assay with HIV-1IIIB [1] (Human immunodeficiency virus 1, CEM-SS, CEM-SS (T), HIV-1IIIB, cell type panel) it was 6.1e-06 M; in the assay on HIV-1IIIB [1] (Human immunodeficiency virus 1, H9(T), HIV-1IIIB), 1.3e-05 M; in the assay with HIV-1IIIB [1] (Human immunodeficiency virus 1, MT-2(T), HIV-1IIIB) it was 1.88e-05 M; with HIV-1IIIB [1] (Human immunodeficiency virus 1, U-937, U937(M), HIV-1IIIB), 3.2e-06 M; with HIV-1IIIB [1] (Human immunodeficiency virus 1, CEM-SS, IIIB, Laboratory HIV-1), 2.08e-05 M. Further, the EC50 in the assay with HIV-1 Clade D amounted to 20 µM; in the assay on HIV-1 Clade F, 69 µM; in the assay on HIV-1 Clade B, 5.5 µM; in the assay on HIV-1 Clade A, 22 µM; in the assay on HIV-1 Clade C, 2.9 µM; with HIV-1 VIHU(NSI) it was 12 µM. For the same compound, in the assay with HIV-1IIIB [1] (in words), the “inhibition of infection by HIV-1IIIB in all cellular phenotypes tested” value is on record as “inhibited by 624151 in all cellular phenotypes tested”. Moreover, the “combination response with other antiviral agents” value in the assay with HIV-1IIIB [2] (AZT, ddC, 3TC, Costatolide or KNI-272, in words) is on record as “additive to slightly synergistic response in combination with other antiviral agents, but was not antagonistic with any agents tested”. Besides, the synergy volume with HIV-1IIIB [2] (in combination with 3TC) came to 44 μM^2; in the assay on HIV-1IIIB [2] (in combination with AZT) it was 37 μM^2; with HIV-1IIIB [2] (in combination with Costatolide), 55 μM^2; in the assay on HIV-1IIIB [2] (in combination with KNI-272 protease inhibitor), 16 μM^2; in the assay on HIV-1IIIB [2] (in combination with ddC), 80 μM^2. The IC50 in the assay on CEM-SS cells (Homo sapiens, CEM-SS, Table 5, cytotoxicity, read-out: IC50 Duplicates) is 116 µM; in the assay with CEM-SS cells (Homo sapiens, CEM-SS, Table 5, cytotoxicity, read-out: IC50 Mean) it was 122 µM; in the assay with CEM-SS cells (Homo sapiens, CEM-SS, cytotoxicity, CEM-SS cells, read-out: XTT Assay IC50), 184 µM; in the assay with CEM-SS cells (Table 5, cytotoxicity, read-out: IC50 Duplicates) it was 127 µM.

The EC50 is the concentration that produces a half-maximal response. A word on the IC50: it is the concentration at which inhibition is half-maximal.
